For three molecules, IC50 and EC50 results are on record in ChEMBL document CHEMBL1201862, “PubChem BioAssay data set” (2004).

Experiment [1] deals with T1, Tyrosine-protein phosphatase non-receptor type 7 (Homo sapiens, UniProt P35236).
T1 sequence (P35236 whole entry): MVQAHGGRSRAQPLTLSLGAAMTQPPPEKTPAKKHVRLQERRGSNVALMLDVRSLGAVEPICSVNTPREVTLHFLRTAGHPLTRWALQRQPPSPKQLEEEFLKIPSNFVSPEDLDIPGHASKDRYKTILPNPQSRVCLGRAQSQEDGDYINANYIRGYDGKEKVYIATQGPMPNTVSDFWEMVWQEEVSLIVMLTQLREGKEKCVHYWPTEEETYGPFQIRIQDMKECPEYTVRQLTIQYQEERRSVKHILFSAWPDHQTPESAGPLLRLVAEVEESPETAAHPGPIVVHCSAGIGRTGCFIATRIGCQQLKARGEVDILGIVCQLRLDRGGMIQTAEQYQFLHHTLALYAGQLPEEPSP
Put plainly: HePTP tyrosine phosphatase activity blockers – biochemical, absorbance, leukemia target, primary screen (AID 521). In kind it is functional.

Experiment [2] deals with E3 ubiquitin-protein ligase Mdm2 (Homo sapiens, UniProt Q00987). In words: MDM2-luc reporter signal enhancers, multi-concentration potency testing, MDM2 ubiquitin-protein ligase inhibitor program, whole-cell format, luminescence detection, 384-well microplate (AID 1394).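 Note: MDM2 E3 inhibitors raise luminescence so EC50 is for signal enhancement.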 Format: functional.
The target in experiment [3] is DNA (cytosine-5)-methyltransferase 1 (Homo sapiens, UniProt P26358). Put plainly: inhibition of DNA methylation by DNMT1 – biochemical, fluorescent molecular beacon, confirmation (AID 602386). Format: functional.
The next experiment concerns the target Bcl-2-like protein 1 (Homo sapiens, UniProt Q07817). Put plainly: blockers of BCLXL peptide binding – biochemical, fluorescence polarization, 1536-well, selectivity assay for MCL1 inhibitor project, dose response (AID 2218).
The next experiment addresses Genome polyprotein (Hepatitis C virus, UniProt Q2Q167). In words: disruption of hepatitis C core self-association – biochemical, TR-FRET, dose response (AID 2159).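 Note: blocks dimerization of HCV core protein measured by TR-FRET between tagged core106 pairs.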 Also noted: species or system Hepacivirus hominis. For orientation: In TR-FRET formats the signal depends on donor and acceptor labels being close together.
In another experiment the target is Albumin (Bos taurus, UniProt P02769). Put plainly: Counterscreen for inhibitors of T-cell receptor (TCR)-CD3 interaction: Fluorescence-based biochemical high throughput dose response assay to identify inhibitors of T-cell receptor (TCR)-CD3 interaction using a TAMRA-labeled BSA probe. Format: functional. (The purpose of a counterscreen is to sort out artefacts and off-target activity.)

The target in experiment [4] is Induced myeloid leukemia cell differentiation protein Mcl-1 (Homo sapiens, UniProt Q07820). Put plainly: blockers of MCL1 binding to BIM peptide – biochemical, fluorescence polarization, BIM-BH3 peptide, 1536-well, dose response (AID 2217).
In experiment [5] the target is T2, Small ubiquitin-related modifier 1 (Homo sapiens, UniProt P63165). In words: SUMO1 protein-protein binding blockers, potency – biochemical, FRET, dose response (AID 624383). In kind it is functional. Particulars: read-out: IC50_Mean.
Experiment [6] concerns the target T2, Small ubiquitin-related modifier 1. In words: SUMO1 protein interaction blockers, potency – biochemical, fluorescence polarization, uHTS hits, dose response (AID 624382). In kind it is functional. Particulars: read-out: IC50_Mean. Background: Polarisation of emitted light reports the rotation of a fluorescent probe.

Active and inactive are the calls of the source.

T2 sequence (P63165 whole entry): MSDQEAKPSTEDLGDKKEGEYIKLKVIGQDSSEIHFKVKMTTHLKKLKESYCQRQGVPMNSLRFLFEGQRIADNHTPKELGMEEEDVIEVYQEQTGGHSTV
Chain of DNA (cytosine-5)-methyltransferase 1 (P26358 whole entry): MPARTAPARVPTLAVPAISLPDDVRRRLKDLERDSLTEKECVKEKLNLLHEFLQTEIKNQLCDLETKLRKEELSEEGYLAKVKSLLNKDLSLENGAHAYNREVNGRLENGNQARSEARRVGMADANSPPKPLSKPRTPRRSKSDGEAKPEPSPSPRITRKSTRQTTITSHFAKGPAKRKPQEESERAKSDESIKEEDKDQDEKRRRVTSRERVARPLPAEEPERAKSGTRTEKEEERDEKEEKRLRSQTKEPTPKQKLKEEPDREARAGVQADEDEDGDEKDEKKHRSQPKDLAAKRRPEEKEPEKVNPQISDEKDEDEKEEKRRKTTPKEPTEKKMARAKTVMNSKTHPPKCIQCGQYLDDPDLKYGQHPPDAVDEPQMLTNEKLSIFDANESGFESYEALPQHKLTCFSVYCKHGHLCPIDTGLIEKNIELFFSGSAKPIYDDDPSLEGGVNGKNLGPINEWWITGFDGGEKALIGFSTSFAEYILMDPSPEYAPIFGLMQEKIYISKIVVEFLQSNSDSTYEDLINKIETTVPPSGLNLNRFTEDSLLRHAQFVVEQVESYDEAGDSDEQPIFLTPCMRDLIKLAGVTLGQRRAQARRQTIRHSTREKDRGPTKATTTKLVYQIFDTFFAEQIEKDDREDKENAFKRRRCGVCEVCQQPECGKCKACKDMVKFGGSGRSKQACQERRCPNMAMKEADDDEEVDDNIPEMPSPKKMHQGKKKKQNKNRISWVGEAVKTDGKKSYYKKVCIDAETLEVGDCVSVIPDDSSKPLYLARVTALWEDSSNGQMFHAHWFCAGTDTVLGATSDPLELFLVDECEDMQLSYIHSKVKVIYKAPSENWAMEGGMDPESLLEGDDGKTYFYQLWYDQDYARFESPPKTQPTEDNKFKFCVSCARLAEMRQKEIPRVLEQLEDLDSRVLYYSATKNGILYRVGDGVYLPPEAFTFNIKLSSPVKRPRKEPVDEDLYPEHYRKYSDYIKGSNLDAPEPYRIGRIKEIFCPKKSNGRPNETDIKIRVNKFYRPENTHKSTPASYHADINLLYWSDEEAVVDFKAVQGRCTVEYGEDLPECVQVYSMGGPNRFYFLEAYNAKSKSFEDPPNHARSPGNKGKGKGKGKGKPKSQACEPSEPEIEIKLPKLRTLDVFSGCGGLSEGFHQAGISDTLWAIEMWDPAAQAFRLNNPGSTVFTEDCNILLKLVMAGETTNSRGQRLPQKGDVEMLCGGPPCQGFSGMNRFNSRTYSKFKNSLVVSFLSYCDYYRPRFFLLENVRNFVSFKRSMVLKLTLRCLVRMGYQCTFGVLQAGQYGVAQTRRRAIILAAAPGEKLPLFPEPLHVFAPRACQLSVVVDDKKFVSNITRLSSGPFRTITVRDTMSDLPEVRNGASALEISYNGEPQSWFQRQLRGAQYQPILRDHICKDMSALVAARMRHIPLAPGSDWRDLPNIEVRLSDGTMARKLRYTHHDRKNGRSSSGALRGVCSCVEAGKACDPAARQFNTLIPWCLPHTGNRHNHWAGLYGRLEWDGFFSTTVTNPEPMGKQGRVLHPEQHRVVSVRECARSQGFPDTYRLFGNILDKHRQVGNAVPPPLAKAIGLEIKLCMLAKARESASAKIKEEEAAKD
Chain of Bcl-2-like protein 1 (Q07817 whole entry): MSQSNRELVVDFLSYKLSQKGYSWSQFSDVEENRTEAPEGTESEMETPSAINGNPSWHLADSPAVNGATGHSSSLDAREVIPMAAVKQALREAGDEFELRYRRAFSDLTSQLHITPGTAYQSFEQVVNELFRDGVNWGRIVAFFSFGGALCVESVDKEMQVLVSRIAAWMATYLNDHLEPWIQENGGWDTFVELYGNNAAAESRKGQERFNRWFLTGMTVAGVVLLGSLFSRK
Chain of Genome polyprotein (Q2Q167 whole entry): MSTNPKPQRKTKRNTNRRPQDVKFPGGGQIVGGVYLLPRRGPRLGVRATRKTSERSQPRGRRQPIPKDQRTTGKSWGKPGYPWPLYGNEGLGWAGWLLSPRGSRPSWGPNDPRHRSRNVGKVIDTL
Chain of E3 ubiquitin-protein ligase Mdm2 (Q00987 whole entry): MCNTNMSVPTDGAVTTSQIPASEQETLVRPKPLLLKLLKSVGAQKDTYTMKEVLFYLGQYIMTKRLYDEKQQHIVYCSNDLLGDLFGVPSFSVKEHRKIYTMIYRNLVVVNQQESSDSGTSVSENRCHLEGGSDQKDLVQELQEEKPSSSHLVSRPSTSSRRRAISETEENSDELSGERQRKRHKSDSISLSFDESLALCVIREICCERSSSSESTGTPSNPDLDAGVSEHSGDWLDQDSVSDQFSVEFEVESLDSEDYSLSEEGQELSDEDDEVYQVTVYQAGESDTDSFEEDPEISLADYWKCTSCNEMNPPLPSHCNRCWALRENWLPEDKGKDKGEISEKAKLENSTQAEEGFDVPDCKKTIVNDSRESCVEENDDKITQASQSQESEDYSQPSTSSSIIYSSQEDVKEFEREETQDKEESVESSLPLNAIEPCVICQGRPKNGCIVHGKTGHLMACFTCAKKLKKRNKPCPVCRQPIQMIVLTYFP
Chain of Albumin (P02769 whole entry): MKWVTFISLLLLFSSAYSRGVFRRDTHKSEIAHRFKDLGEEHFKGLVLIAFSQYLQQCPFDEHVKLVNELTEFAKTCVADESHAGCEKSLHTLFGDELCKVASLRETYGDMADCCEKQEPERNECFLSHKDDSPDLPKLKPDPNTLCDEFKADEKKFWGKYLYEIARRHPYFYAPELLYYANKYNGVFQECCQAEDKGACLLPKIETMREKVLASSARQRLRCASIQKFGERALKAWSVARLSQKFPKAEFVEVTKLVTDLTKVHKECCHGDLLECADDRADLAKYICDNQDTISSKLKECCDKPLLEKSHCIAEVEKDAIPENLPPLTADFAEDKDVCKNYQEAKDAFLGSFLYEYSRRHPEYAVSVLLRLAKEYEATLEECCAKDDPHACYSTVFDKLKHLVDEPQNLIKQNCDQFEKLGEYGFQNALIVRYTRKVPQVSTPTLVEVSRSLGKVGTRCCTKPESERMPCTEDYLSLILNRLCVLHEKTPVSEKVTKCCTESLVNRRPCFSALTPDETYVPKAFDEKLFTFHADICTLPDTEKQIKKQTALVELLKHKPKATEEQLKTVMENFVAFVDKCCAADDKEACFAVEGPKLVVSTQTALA
Chain of Induced myeloid leukemia cell differentiation protein Mcl-1 (Q07820 whole entry): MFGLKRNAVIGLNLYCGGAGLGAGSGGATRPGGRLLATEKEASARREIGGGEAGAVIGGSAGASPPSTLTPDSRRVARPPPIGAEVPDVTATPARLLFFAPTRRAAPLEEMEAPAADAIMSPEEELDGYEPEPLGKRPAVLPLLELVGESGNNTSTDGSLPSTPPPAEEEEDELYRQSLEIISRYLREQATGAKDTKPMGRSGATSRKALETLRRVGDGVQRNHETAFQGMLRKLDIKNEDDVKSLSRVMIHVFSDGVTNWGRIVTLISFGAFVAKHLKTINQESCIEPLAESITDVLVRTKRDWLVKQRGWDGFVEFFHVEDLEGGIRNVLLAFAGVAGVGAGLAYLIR

For `O=C(NCc1ccc(F)cc1)c1cc2ccccn2n1`, the IC50 in experiment [1] is listed as > 100 µM (not active).
Broadly, the EC50 is the concentration giving half of the maximal effect. `COc1ccccc1N1CCN(C(c2ccc(C)cc2)c2nnnn2C(C)C)CC1` (centres undefined): the EC50 in experiment [2] is reported as 14.5 µM (not active).
With `O=C1COc2ccc(C(=O)COC(=O)/C=C/c3ccc(Br)o3)cc2N1`, the IC50 was 12.2 µM (active) in experiment [3]; > 109 µM (not active) on Bcl-2-like protein 1; > 49.8 µM (not active) at Genome polyprotein; > 94.1 µM (inactive) on Albumin; > 4.03 µM (active) in experiment [4]; 4.57 µM (active) in [5]. For the same molecule, the IC50 in experiment [6] is > 66.6 µM (inactive).
